# Reference: PMC5218480 (PLoS ONE, 2017)
# Test system: MV-4-11 cells
# Assay: Gene expression microarray analysis (Affymetrix PrimeView) and GSEA
# Type: cell-based, human
# Set-up: RFU PODN (11730768_x_at) / Fold change /veh PODN (11730768_x_at) / RFU LINC00158 (11744669_a_at) / Fold change /veh LINC00158 (11744669_a_at) / RFU DUSP10 (11751237_a_at) / Fold change /veh DUSP10 (11751237_a_at) / RFU ID3 (11757404_x_at) / Fold change /veh ID3 (11757404_x_at) / RFU PLEKHG5 (11737974_s_at) / Fold change /veh PLEKHG5 (11737974_s_at) / RFU LRRC4B (11730491_at) / Fold change /veh LRRC4B (11730491_at) / RFU GIMAP4 (11747438_a_at) / Fold change /veh GIMAP4 (11747438_a_at) / RFU KRT8 (11758183_x_at) / Fold change /veh KRT8 (11758183_x_at) / RFU CNN1 (11734310_a_at) / Fold change /veh CNN1 (11734310_a_at) / RFU VPS37D (11726825_at) / Fold change /veh VPS37D (11726825_at) / RFU C10orf10 (11716522_x_at) / Fold change /veh C10orf10 (11716522_x_at) / RFU KIR2DL2 /// KIR2DL4 /// KIR2DL5A /// KIR2DL5B /// KIR2DS1 /// KIR2DS2 /// KIR2DS3 /// KIR2DS4 /// KIR3DL3 /// KIR3DL3 /// KIR3DS1 (11738374_at) / Fold change /veh KIR2DL2 /// KIR2DL4 /// KIR2DL5A /// KIR2DL5B /// KIR2DS1 /// KIR2DS2 /// KIR2DS3 /// KIR2DS4 /// KIR3DL3 /// KIR3DL3 /// KIR3DS1 (11738374_at) / RFU C1QL1 (11718748_at) / Fold change /veh C1QL1 (11718748_at) / RFU TMPRSS4 (11747572_a_at) / Fold change /veh TMPRSS4 (11747572_a_at) / RFU HAMP (11756126_x_at) / Fold change /veh HAMP (11756126_x_at) / RFU RNFT2 (11725882_a_at) / Fold change /veh RNFT2 (11725882_a_at) / RFU NR4A2 (11747474_a_at) / Fold change /veh NR4A2 (11747474_a_at) / RFU ABCC12 (11746883_a_at) / Fold change /veh ABCC12 (11746883_a_at) / RFU TMEM136 (11760407_x_at) / Fold change /veh TMEM136 (11760407_x_at) / RFU CLDN22 /// WWC2 (11732394_at) / Fold change /veh CLDN22 /// WWC2 (11732394_at) / RFU HLA-DPB1 (11760878_x_at) / Fold change /veh HLA-DPB1 (11760878_x_at) / RFU SPINT1 (11716480_a_at) / Fold change /veh SPINT1 (11716480_a_at) / RFU GAP43 (11754022_s_at) / Fold change /veh GAP43 (11754022_s_at) / RFU A4GNT (11735810_at) / Fold change /veh A4GNT (11735810_at) / RFU PRB3 (11715151_x_at) / Fold change /veh PRB3 (11715151_x_at) / RFU TUBB4B (11761932_at) / Fold change /veh TUBB4B (11761932_at) / RFU CAPN14 (11732068_a_at) / Fold change /veh CAPN14 (11732068_a_at) / RFU TMCC2 (11721928_a_at) / Fold change /veh TMCC2 (11721928_a_at) / RFU IRGQ (11745062_a_at) / Fold change /veh IRGQ (11745062_a_at) / RFU FAM174B (11720279_a_at) / Fold change /veh FAM174B (11720279_a_at) / RFU TMPRSS4 (11748680_a_at) / Fold change /veh TMPRSS4 (11748680_a_at) / RFU FAM212B (11763350_a_at) / Fold change /veh FAM212B (11763350_a_at) / RFU PLEKHG5 (11743358_a_at) / Fold change /veh PLEKHG5 (11743358_a_at) / RFU ZSCAN30 (11745921_a_at) / Fold change /veh ZSCAN30 (11745921_a_at) / RFU CMKLR1 (11741424_a_at) / Fold change /veh CMKLR1 (11741424_a_at) / RFU LOC101060620 /// MAPK8IP1 (11723275_at) / Fold change /veh LOC101060620 /// MAPK8IP1 (11723275_at) / RFU SPTSSB (11747773_x_at) / Fold change /veh SPTSSB (11747773_x_at) / RFU PRSS12 (11739890_at) / Fold change /veh PRSS12 (11739890_at) / RFU BIN1 (11741810_x_at) / Fold change /veh BIN1 (11741810_x_at) / RFU WNT11 (11732464_a_at) / Fold change /veh WNT11 (11732464_a_at) / RFU C10orf10 (11716521_a_at) / Fold change /veh C10orf10 (11716521_a_at) / RFU C5orf56 (11738089_at) / Fold change /veh C5orf56 (11738089_at) / RFU CYB561 (11721691_x_at) / Fold change /veh CYB561 (11721691_x_at) / RFU ANKRD19P (11752326_a_at) / Fold change /veh ANKRD19P (11752326_a_at) / RFU OR2T12 /// OR2T33 /// OR2T8 (11738714_s_at) / Fold change /veh OR2T12 /// OR2T33 /// OR2T8 (11738714_s_at) / RFU VCAN (11748164_a_at) / Fold change /veh VCAN (11748164_a_at) / RFU JSRP1 (11732532_at) / Fold change /veh JSRP1 (11732532_at) / RFU KRTAP10-11 (11738290_x_at) / Fold change /veh KRTAP10-11 (11738290_x_at) / RFU MYO3A (11730013_a_at) / Fold change /veh MYO3A (11730013_a_at) / RFU EBF3 (11725865_a_at) / Fold change /veh EBF3 (11725865_a_at) / RFU CAMK2N1 (11719241_x_at) / Fold change /veh CAMK2N1 (11719241_x_at) / RFU C5orf56 (11738088_a_at) / Fold change /veh C5orf56 (11738088_a_at) / RFU OLFML3 (11715873_a_at) / Fold change /veh OLFML3 (11715873_a_at) / RFU LOC100653217 /// NTM (11731650_a_at) / Fold change /veh LOC100653217 /// NTM (11731650_a_at) / RFU MAPK11 (11762145_a_at) / Fold change /veh MAPK11 (11762145_a_at) / RFU FIZ1 (11724087_x_at) / Fold change /veh FIZ1 (11724087_x_at) / RFU OASL (11726364_x_at) / Fold change /veh OASL (11726364_x_at) / RFU SOX15 (11748057_x_at) / Fold change /veh SOX15 (11748057_x_at) / RFU CD79A (11719716_a_at) / Fold change /veh CD79A (11719716_a_at) / RFU HIST1H1D (11736915_at) / Fold change /veh HIST1H1D (11736915_at) / RFU CASKIN2 (11723855_a_at) / Fold change /veh CASKIN2 (11723855_a_at) / RFU LOC730098 (11760151_x_at) / Fold change /veh LOC730098 (11760151_x_at) / RFU OR4N2 (11742367_at) / Fold change /veh OR4N2 (11742367_at) / RFU PRRT2 (11749266_a_at) / Fold change /veh PRRT2 (11749266_a_at) / RFU SNX32 (11753110_a_at) / Fold change /veh SNX32 (11753110_a_at) / RFU CDHR5 (11726645_a_at) / Fold change /veh CDHR5 (11726645_a_at) / RFU RCAN1 (11760418_a_at) / Fold change /veh RCAN1 (11760418_a_at) / RFU FAM167A (11723789_a_at) / Fold change /veh FAM167A (11723789_a_at) / RFU FAM26E (11764081_at) / Fold change /veh FAM26E (11764081_at) / RFU ISYNA1 (11749810_s_at) / Fold change /veh ISYNA1 (11749810_s_at) / RFU ACY1 (11761880_at) / Fold change /veh ACY1 (11761880_at) / RFU 11764098_at / Fold change /veh 11764098_at / RFU SAMD14 (11745864_x_at) / Fold change /veh SAMD14 (11745864_x_at) / RFU NPB (11741838_a_at) / Fold change /veh NPB (11741838_a_at) / RFU TMPRSS6 (11731388_a_at) / Fold change /veh TMPRSS6 (11731388_a_at) / RFU KRTAP10-2 (11738614_at) / Fold change /veh KRTAP10-2 (11738614_at) / RFU ARHGAP8 /// PRR5-ARHGAP8 (11727945_x_at) / Fold change /veh ARHGAP8 /// PRR5-ARHGAP8 (11727945_x_at) / RFU KRTAP5-7 /// NADSYN1 (11734609_at) / Fold change /veh KRTAP5-7 /// NADSYN1 (11734609_at) / RFU RASL12 (11751679_a_at) / Fold change /veh RASL12 (11751679_a_at) / RFU CDKN2B (11736163_a_at) / Fold change /veh CDKN2B (11736163_a_at) / RFU PRF1 (11729649_at) / Fold change /veh PRF1 (11729649_at) / RFU, ZNF638 /// ZNF638-IT1 / Fold change vs veh, ZNF638 /// ZNF638-IT1 / RFU, PANK3 / Fold change vs veh, PANK3 / RFU, SH3YL1 / Fold change vs veh, SH3YL1 / RFU, ZEB2 / Fold change vs veh, ZEB2 / RFU, NRIP1 / Fold change vs veh, NRIP1 / RFU, PTTG1IP / Fold change vs veh, PTTG1IP / RFU, CAPN2 / Fold change vs veh, CAPN2 / RFU, MED14 / Fold change vs veh, MED14 / RFU, SNORA58 / Fold change vs veh, SNORA58 / RFU, C1orf63 / Fold change vs veh, C1orf63 / RFU, LRRFIP1 / Fold change vs veh, LRRFIP1 / RFU, NDUFAF7 / Fold change vs veh, NDUFAF7 / RFU, SLC12A2 / Fold change vs veh, SLC12A2 / RFU, IBTK / Fold change vs veh, IBTK / RFU, ESF1 / Fold change vs veh, ESF1 / Fold change vs veh, TMEM50B / RFU, TAOK1 / Fold change vs veh, TAOK1 / RFU, ACBD3 / Fold change vs veh, ACBD3 / RFU, TMA16 / Fold change vs veh, TMA16 / RFU, RWDD3 / Fold change vs veh, RWDD3 / RFU, BCAT1 / Fold change vs veh, BCAT1 / RFU, EDEM3 / Fold change vs veh, EDEM3 / RFU, TMEM33 / Fold change vs veh, TMEM33 / RFU, WDR75 / Fold change vs veh, WDR75 / RFU, AHCTF1 / Fold change vs veh, AHCTF1 / RFU, TFRC / Fold change vs veh, TFRC / RFU, ZDHHC17 / Fold change vs veh, ZDHHC17 / RFU, NOM1 / Fold change vs veh, NOM1 / RFU, ARL8B / Fold change vs veh, ARL8B / RFU, ZBTB11 / Fold change vs veh, ZBTB11 / RFU, TAMM41 / Fold change vs veh, TAMM41 / RFU, KIAA1704 /// LOC100996395 / Fold change vs veh, KIAA1704 /// LOC100996395 / RFU, ING1 / Fold change vs veh, ING1 / RFU, TRMT61B / Fold change vs veh, TRMT61B / RFU, FUBP3 / Fold change vs veh, FUBP3 / RFU, TP53 / Fold change vs veh, TP53 / RFU, TNKS2 / Fold change vs veh, TNKS2 / RFU, ZFP14 / Fold change vs veh, ZFP14 / RFU, ACTR2 / Fold change vs veh, ACTR2 / RFU, PPP3R1 / Fold change vs veh, PPP3R1 / RFU, PIK3R1 / Fold change vs veh, PIK3R1 / RFU, HNRNPA1 / Fold change vs veh, HNRNPA1 / RFU, RNF170 / Fold change vs veh, RNF170 / RFU, ZNF28 / Fold change vs veh, ZNF28 / RFU, RNGTT / Fold change vs veh, RNGTT / RFU, OGT / Fold change vs veh, OGT / RFU, BRD1 / Fold change vs veh, BRD1 / RFU, MARS / Fold change vs veh, MARS / RFU, ZNF655 / Fold change vs veh, ZNF655 / RFU, FAHD1 / Fold change vs veh, FAHD1 / RFU, BDP1 / Fold change vs veh, BDP1 / RFU, LRRCC1 / Fold change vs veh, LRRCC1 / RFU, ARID1A / Fold change vs veh, ARID1A / RFU, ZNF146 / Fold change vs veh, ZNF146 / RFU, ZNF330 / Fold change vs veh, ZNF330 / RFU, GPN3 / Fold change vs veh, GPN3 / RFU, C9orf123 / Fold change vs veh, C9orf123 / RFU, N4BP2L2 / Fold change vs veh, N4BP2L2 / RFU, ARFIP1 / Fold change vs veh, ARFIP1 / RFU, FAM179B / Fold change vs veh, FAM179B / RFU, BCL10 / Fold change vs veh, BCL10 / RFU, UHRF1BP1L / Fold change vs veh, UHRF1BP1L / RFU, BET1 / Fold change vs veh, BET1 / RFU, CNOT2 / Fold change vs veh, CNOT2 / RFU, ZNF268 / Fold change vs veh, ZNF268 / Fold change vs veh, ZNF507 / RFU, DGCR2 / Fold change vs veh, DGCR2 / RFU, WDSUB1 / Fold change vs veh, WDSUB1 / Fold change vs veh, HSP90B1 /// MIR3652 / RFU, ADSS / Fold change vs veh, ADSS / RFU, GK / Fold change vs veh, GK / RFU, ZNF148 / Fold change vs veh, ZNF148 / RFU, TAF9 / Fold change vs veh, TAF9 / RFU, SLC1A5 / Fold change vs veh, SLC1A5 / RFU, SLMO2 / Fold change vs veh, SLMO2 / RFU, ABCC4 / Fold change vs veh, ABCC4 / RFU, LOC101060439 /// RAP1B / Fold change vs veh, LOC101060439 /// RAP1B / RFU, RFX7 / Fold change vs veh, RFX7 / RFU, GTPBP10 / Fold change vs veh, GTPBP10 / RFU, CNEP1R1 / Fold change vs veh, CNEP1R1 / RFU, BIVM-ERCC5 /// ERCC5 / Fold change vs veh, BIVM-ERCC5 /// ERCC5 / RFU, ILF3 / Fold change vs veh, ILF3 / RFU 11762660_at / Fold change /veh 11762660_at / RFU VCAN (11757783_s_at) / Fold change /veh VCAN (11757783_s_at) / RFU DDX43 (11728927_at) / Fold change /veh DDX43 (11728927_at) / RFU KRT8 (11758188_x_at) / Fold change /veh KRT8 (11758188_x_at) / RFU NKD1 (11759106_at) / Fold change /veh NKD1 (11759106_at) / RFU SRD5A1 (11742802_a_at) / Fold change /veh SRD5A1 (11742802_a_at) / RFU TPSAB1 /// TPSB2 (11721975_s_at) / Fold change /veh TPSAB1 /// TPSB2 (11721975_s_at) / RFU GSTM3 (11746129_a_at) / Fold change /veh GSTM3 (11746129_a_at) / RFU IL23R (11737362_x_at) / Fold change /veh IL23R (11737362_x_at) / RFU TMEM51 (11727254_a_at) / Fold change /veh TMEM51 (11727254_a_at) / RFU PIWIL2 (11732686_x_at) / Fold change /veh PIWIL2 (11732686_x_at) / RFU ORM1 (11744905_x_at) / Fold change /veh ORM1 (11744905_x_at) / RFU CCDC152 (11743942_at) / Fold change /veh CCDC152 (11743942_at) / RFU ECM1 (11717891_a_at) / Fold change /veh ECM1 (11717891_a_at) / RFU IL23R (11748794_a_at) / Fold change /veh IL23R (11748794_a_at) / RFU TNFAIP8L3 (11732012_x_at) / Fold change /veh TNFAIP8L3 (11732012_x_at) / RFU MBOAT4 (11741988_at) / Fold change /veh MBOAT4 (11741988_at) / RFU 11764193_at / Fold change /veh 11764193_at / RFU TMEM53 (11763286_at) / Fold change /veh TMEM53 (11763286_at) / RFU MAGEB2 (11727129_at) / Fold change /veh MAGEB2 (11727129_at) / RFU TMEM200A (11744735_a_at) / Fold change /veh TMEM200A (11744735_a_at) / RFU CCDC152 (11751479_a_at) / Fold change /veh CCDC152 (11751479_a_at) / RFU FAM211A (11726209_a_at) / Fold change /veh FAM211A (11726209_a_at) / RFU RGS16 (11746705_a_at) / Fold change /veh RGS16 (11746705_a_at) / RFU VCAN (11755009_s_at) / Fold change /veh VCAN (11755009_s_at) / RFU RHOB (11743442_s_at) / Fold change /veh RHOB (11743442_s_at) / RFU RGS16 (11720943_a_at) / Fold change /veh RGS16 (11720943_a_at) / RFU RGS16 (11720944_at) / Fold change /veh RGS16 (11720944_at) / RFU, VPS4B / Fold change vs veh, VPS4B / RFU, CREB1 / Fold change vs veh, CREB1 / RFU, DNAJC13 / Fold change vs veh, DNAJC13 / RFU, GNAQ / Fold change vs veh, GNAQ / RFU, CDK5R1 / Fold change vs veh, CDK5R1 / RFU, ZRANB3 / Fold change vs veh, ZRANB3 / RFU, CUL4A / Fold change vs veh, CUL4A / RFU, CCNY / Fold change vs veh, CCNY / RFU, UFL1 / Fold change vs veh, UFL1 / RFU, COG3 / Fold change vs veh, COG3 / RFU, DIAPH2 / Fold change vs veh, DIAPH2 / RFU, SKA2 / Fold change vs veh, SKA2 / RFU, AFF3 / Fold change vs veh, AFF3 / RFU, LMF1 / Fold change vs veh, LMF1 / RFU, IPO11 / Fold change vs veh, IPO11 / RFU, DFFB / Fold change vs veh, DFFB / RFU, FOXP1 / Fold change vs veh, FOXP1 / RFU, CARD8 / Fold change vs veh, CARD8 / RFU, STRN3 / Fold change vs veh, STRN3 / RFU, ADK / Fold change vs veh, ADK / RFU, RASSF2 / Fold change vs veh, RASSF2 / RFU, WIPF1 / Fold change vs veh, WIPF1 / RFU, LARP1B / Fold change vs veh, LARP1B / RFU, RASA1 / Fold change vs veh, RASA1 / RFU, RB1 / Fold change vs veh, RB1 / RFU, PPFIA1 / Fold change vs veh, PPFIA1 / RFU, MAT2A / Fold change vs veh, MAT2A / RFU, CCT5 / Fold change vs veh, CCT5 / RFU, WDR92 / Fold change vs veh, WDR92 / RFU, CUX1 / Fold change vs veh, CUX1 / RFU, TTC7A / Fold change vs veh, TTC7A / RFU, TMEM135 / Fold change vs veh, TMEM135 / RFU, DEPTOR / Fold change vs veh, DEPTOR / RFU, CPM / Fold change vs veh, CPM / RFU, DNAJB6 / Fold change vs veh, DNAJB6 / RFU, CACNA2D3 / Fold change vs veh, CACNA2D3 / RFU, DTX4 / Fold change vs veh, DTX4 / RFU, TFCP2 / Fold change vs veh, TFCP2 / RFU, GMCL1 /// GMCL1P1 / Fold change vs veh, GMCL1 /// GMCL1P1 / RFU, AEBP2 / Fold change vs veh, AEBP2 / RFU, SNHG1 /// SNORD22 /// SNORD25 /// SNORD26 /// SNORD27 /// SNORD28 /// SNORD29 /// SNORD31 / Fold change vs veh, SNHG1 /// SNORD22 /// SNORD25 /// SNORD26 /// SNORD27 /// SNORD28 /// SNORD29 /// SNORD31 / Fold change (Aza/veh), C12orf56 (ProbeSet 11735607_a_at) / Fold change (ACY-1035/veh), C12orf56 (ProbeSet 11735607_a_at) / Fold change (Aza/veh), FGFR1OP (ProbeSet 11751329_s_at) / Fold change (ACY-1035/veh), FGFR1OP (ProbeSet 11751329_s_at) / Fold change (Aza/veh), VPS36 (ProbeSet 11739960_a_at) / Fold change (ACY-1035/veh), VPS36 (ProbeSet 11739960_a_at) / RFU SYPL1 (11715823_x_at) / Fold change /veh SYPL1 (11715823_x_at) / RFU IGFBP7 (11715501_s_at) / Fold change /veh IGFBP7 (11715501_s_at) / RFU REEP3 (11722064_at) / Fold change /veh REEP3 (11722064_at) / RFU IGLL1 (11728026_x_at) / Fold change /veh IGLL1 (11728026_x_at): dose or concentration left out as unconfirmed
# Conditions: ProbeSet 11720270_a_at; LIST B
smiles,measurement,value
Nc1ccc(-c2cccs2)cc1NC(=O)c1ccc2c(c1)cc(C1CC1)n2CCN1CCOCC1 [ACY-1035],"Fold change vs veh, IBTK",0.91
